Reference: patent US6833372B2, “Non-peptide GnRH agents, Pharmaceutical compositions, and methods for their use” (Pfizer, Inc., priority 2002, dated 2004)

What follows are compounds tested against T1, human GnRH receptors (Homo sapiens, UniProt P30968) (assay: Radioligand binding: inhibition of 125I-GnRH-A binding to human GnRH receptor membranes). Settings: HEK 293 cell membranes.
T1 construct: expressed in transfected cells; host or cells: HEK 293 cells, stably transfected; membranes
T1 sequence (P30968 1-328): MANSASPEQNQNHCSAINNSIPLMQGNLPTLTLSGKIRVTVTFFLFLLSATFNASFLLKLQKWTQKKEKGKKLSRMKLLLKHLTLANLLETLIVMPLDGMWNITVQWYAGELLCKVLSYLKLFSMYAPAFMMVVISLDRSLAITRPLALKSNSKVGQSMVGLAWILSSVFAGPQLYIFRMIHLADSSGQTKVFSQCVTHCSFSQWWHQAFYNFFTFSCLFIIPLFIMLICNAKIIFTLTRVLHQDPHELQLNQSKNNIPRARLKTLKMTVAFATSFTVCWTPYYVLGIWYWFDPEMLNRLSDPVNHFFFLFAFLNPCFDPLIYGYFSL
Protocol: HEK 293 cells stably transfected with mouse or human GnRH receptors as described above were grown in Dulbecco's high-glucose, modified Eagle's medium (DMEM) supplemented with 0.2% G418, 10% fetal bovine serum (FBS) and 100 U/mL penicillin/streptomycin. GH3 cells stably transfected with the rat GnRH receptor (GGH3) were provided by Dr. William Chin (Harvard Medical School, Boston, Mass.). These cells have been extensively characterized previously (Kaiser et al., 1997). The cells were grown in low glucose DMEM containing: 100U/mL penicillin/streptomycin, 0.6% G418 and 10% heat-inactivated FBS.
HEK 293 cells containing mouse or human receptors, or rat pituitaries (Pel Freez Biologicals, Rogers, Ark.) were homogenized in buffer A containing: 50 mM Tris (pH 7.4), 0.32 M sucrose, 2 mM EGTA, 1 mM PMSF, 5 μg/ml aprotinen, 5 μg/ml Pepstatin A, and 1 μg/ml leupeptin. Homogenized cells were centrifuged at 4° C. at 20,000×g for 25 minutes, re-suspended in buffer A and re-centrifuged at 4° C. at 20,000×g for an additional 25 minutes. Total membrane protein was determined with a BCA kit (Pierce, Rockford, Ill.). Membranes were stored at −70° C. at a final membrane protein concentration of approximately 5 mg/ml.
The radioiodinated agonist analog of GnRH, [des-Gly^10,D-Ala^6]GnRH ethylamide (^125I-GnRH-A), was used as the radioligand. […] The reaction mixture was vortexed and incubated for 1 minute at room temperature. After one minute, the mixture was vortexed and allowed to incubate for an additional minute. 2 ml of 0.5 M acetic acid/1% BSA was added to the reaction tube and the mixture was added to a C18 Sep-Pak cartridge. The cartridge was washed with subsequent washes of 5 ml H2O and 5 ml 0.5 M acetic acid and then eluted with 5×1 ml of 60% CH3CN/40% 0.5 M acetic acid. The eluate was diluted with 3× volume of HPLC buffer A (0.1% TFA in H2O) and loaded onto a C18 column. The iodinated product was eluted over 20-25 min with a gradient of 25-100% CH3CN containing 0.1% TFA. The radioactive fractions (750 μl/fraction) were collected into clean polypropylene tubes containing 100 μl of 10% BSA. Fractions were assessed for biological activity by radioligand binding. Specific activity of the radioligand was approximately 2200 Ci/mmol.
Membranes were diluted to 0.01-0.5 mg/ml (depending upon the species of receptor) with assay buffer containing 50 mM HEPES (pH 7.4), 1 mM EDTA, 2.5 mM MgCl2, and 0.1% BSA. Membranes (diluted to utilize similar receptor numbers between assays) were incubated with approximately 0.04-0.06 nM ^125I-GnRH-A in the presence or absence of competing agents (0.1-10,000 nM) in a total volume of 200 μl in 96-well polypropylene plates for 1 hour at room temperature. Assays were stopped by rapid filtration onto 96-well GF/C filters soaked in 0.1% polyethylenimine (PEI) utilizing a Packard 96-well cell harvester. Filters were washed three times with ice-cold PBS (50 mM NaPO4, 0.9% NaCl, 2 mM MgCl2, and 0.02% NaN3, pH 7.4). 35 μl of scintillation cocktail was added to each filter well and filters were counted on a Packard Topcount. Control dose-response curves were generated to GnRH (0.1 nM-100 nM) in each competition binding experiment. Ki values were calculated from IC50 values according to Cheng et al., Biochemical Pharmacol. 22: 3099-3108, 1973. [formula]

Row | Structure (SMILES) | Ki
1 | CCOC(=O)CN(Cc1ccccc1)c1nc(OC)c(NC(=O)c2ccc(Cc3cc4c(cc3C)C(C)(C)OC4(C)C)o2)c(OC)n1 [Example D51, Ethyl N-benzyl-N-[4,6-dimethoxy-5-({5-[(1,1,3,3,6-pentamethyl-1,3-dihydro-2-benzofuran-5-yl)methyl]-2-furoyl}amino)pyrimidin-2-yl]glycinate] | 202 nM
2 | COc1nc(N2CCN(c3ccccc3F)CC2)nc(OC)c1NC(=O)c1ccc(Cc2cc3c(cc2C)C(C)(C)OC3(C)C)o1 [Example D43, N-{2-[4-(2-Fluorophenyl)piperazin-1-yl]-4,6-dimethoxypyrimidin-5-yl}-5-[(1,1,3,3,6-pentamethyl-1,3-dihydro-2-benzofuran-5-yl)methyl]-2-furamide] | 160 nM
3 | COc1nc(NCc2ccccc2Br)nc(OC)c1NC(=O)c1ccc(Cc2cc3c(cc2C)C(C)(C)OC3(C)C)o1 [Example D28, N-{2-[(2-Bromobenzyl)amino]-4,6-dimethoxypyrimidin-5-yl}-5-[(1,1,3,3,6-pentamethyl-1,3-dihydro-2-benzofuran-5-yl)methyl]-2-furamide] | 30 nM
4 | C=C(C)CN(Cc1ccco1)c1nc(OC)c(NC(=O)c2ccc(Cc3cc4c(cc3C)C(C)(C)OC4(C)C)o2)c(OC)n1 [Example D25, N-{2-[(2-Furylmethyl)(2-methylprop-2-enyl)amino]-4,6-dimethoxypyrimidin-5-yl}-5-[(1,1,3,3,6-pentamethyl-1,3-dihydro-2-benzofuran-5-yl)methyl]-2-furamide] | 460 nM
5 | COc1nc(NCCCN2CCN(C)CC2)nc(OC)c1NC(=O)c1ccc(Cc2c(C)cc3c(c2C)C(C)(C)CO3)o1 [Example H2, N-(4,6-Dimethoxy-2-{[3-(4-methylpiperazin-1-yl)propyl]amino}pyrimidin-5-yl)-5-[(3,3,4,6-tetramethyl-2,3-dihydro-1-benzofuran-5-yl)methyl]-2-furamide] | 47 nM
6 | COc1nc(N(Cc2ccccn2)Cc2ccccn2)nc(OC)c1NC(=O)c1ccc(Cc2cc3c(cc2C)C(C)(C)OC3(C)C)o1 [Example D45, N-{2-[Bis(pyridin-2-ylmethyl)amino]-4,6-dimethoxy-pyrimidin-5-yl}-5-[(1,1,3,3,6-pentamethyl-1,3-dihydro-2-benzofuran-5-yl)methyl]-2-furamide] | 200 nM
7 | COc1nc(NC2CCN(Cc3ccccc3)CC2)nc(OC)c1NC(=O)c1ccc(Cc2cc3c(cc2C)C(C)(C)OC3(C)C)o1 [Example D33, N-{2-[(1-Benzylpiperidin-4-yl)amino]-4,6-dimethoxypyrimidin-5-yl}-5-[(1,1,3,3,6-pentamethyl-1,3-dihydro-2-benzofuran-5-yl)methyl]-2-furamide] | 46 nM
8 | COc1nc(NCCNC2C3CC4CC(C3)CC2C4)nc(OC)c1NC(=O)c1ccc(Cc2cc3c(cc2C)C(C)(C)OC3(C)C)o1 (stereo not shown) [Example D35, N-(2-{[2-(2-Adamantylamino)ethyl]amino}-4,6-dimethoxypyrimidin-5-yl)-5-[(1,1,3,3,6-pentamethyl-1,3-dihydro-2-benzofuran-5-yl)methyl]-2-furamide] | 2.6 nM
9 | CCCCN(CCC#N)c1nc(OC)c(NC(=O)c2ccc(Cc3cc4c(cc3C)C(C)(C)OC4(C)C)o2)c(OC)n1 [Example D37, N-{2-[Butyl(2-cyanoethyl)amino]-4,6-dimethoxypyrimidin-5-yl}-5-[(1,1,3,3,6-pentamethyl-1,3-dihydro-2-benzofuran-5-yl)methyl]-2-furamide] | 41 nM
10 | COc1nc(N2CCN(CCC#N)CC2)nc(OC)c1NC(=O)c1ccc(Cc2cc3c(cc2C)C(C)(C)OC3(C)C)o1 [Example D26, N-{2-[4-(2-cyanoethyl)piperazin-1-yl]-4,6-dimethoxy-pyrimidin-5-yl}-5-[(1,1,3,3,6-pentamethyl-1,3-dihydro-2-benzofuran-5-yl)methyl]-2-furamide] | 84 nM
11 | COc1nc(NCCCN(C)C)nc(OC)c1NC(=O)c1ccc(Cc2cc3c(cc2C)C(C)(C)CC3(C)C)o1 [Example J1, N-(2-{[3-(dimethylamino)propyl]amino}-4,6-dimethoxypyrimidin-5-yl)-5-[(1,1,3,3,6-pentamethyl-2,3-dihydro-1H-inden-5-yl)methyl]-2-furamide] | 0.2 nM
12 | COc1cc(CNc2nc(OC)c(NC(=O)c3ccc(Cc4cc5c(cc4C)C(C)(C)OC5(C)C)o3)c(OC)n2)cc(OC)c1OC [Example D34, N-{4,6-Dimethoxy-2-[(3,4,5-trimethoxybenzyl)amino]-pyrimidin-5-yl}-5-[(1,1,3,3,6-pentamethyl-1,3-dihydro-2-benzofuran-5-yl)methyl]-2-furamide] | 14 nM
13 | CCc1ccc(CN(CCCO)c2nc(OC)c(NC(=O)c3ccc(Cc4cc5c(cc4C)C(C)(C)OC5(C)C)o3)c(OC)n2)cc1 [Example D48, N-{2-[(4-Ethylbenzyl)(3-hydroxypropyl)amino]-4,6-dimethoxypyrimidin-5-yl}-5-[(1,1,3,3,6-pentamethyl-1,3-dihydro-2-benzofuran-5-yl)methyl]-2-furamide] | 240 nM
14 | COc1nc(N2CCN(Cc3ccncc3)CC2)nc(OC)c1NC(=O)c1ccc(Cc2cc3c(cc2C)C(C)(C)OC3(C)C)o1 [Example D54, N-{4,6-Dimethoxy-2-[4-(pyridin-4-ylmethyl)piperazin-1-yl]pyrimidin-5-yl}-5-[(1,1,3,3,6-pentamethyl-1,3-dihydro-2-benzofuran-5-yl)methyl]-2-furamide] | 150 nM
15 | COc1nc(N2CCN(CCN3CCOCC3)CC2)nc(OC)c1NC(=O)c1ccc(Cc2cc3c(cc2C)C(C)(C)OC3(C)C)o1 [Example D46, N-{4,6-Dimethoxy-2-(4-(2-morpholin-4-ylethyl)piperazin-1-yl]pyrimidin-5-yl}-5-[(1,1,3,3,6-pentamethyl-1,3-dihydro-2-benzofuran-5-yl)methyl]-2-furamide] | 19 nM
16 | COc1nc(NCCCN2CCN(C)CC2)nc(OC)c1NC(=O)c1ccc(Cc2cc3c(cc2C)C(C)(C)OC3(C)C)o1 [Example D63, N-(4,6-Dimethoxy-2-{[3-(4-methylpiperazin-1-yl)propyl]amino}pyrimidin-5-yl)-5-[(1,1,3,3,6-pentamethyl-1,3-dihydro-2-benzofuran-5-yl)methyl]-2-furamide] | 1.8 nM
17 | COc1nc(N2CCC[C@H]2C(=O)OC(C)(C)C)nc(OC)c1NC(=O)c1ccc(Cc2cc3c(cc2C)C(C)(C)OC3(C)C)o1 [Example D24, tert-Butyl 1-[4,6-dimethoxy-5-({5-[(1,1,3,3,6-pentamethyl-1,3-dihydro-2-benzofuran-5-yl)methyl]-2-furoyl}amino)pyrimidin-2-yl]prolinate] | 360 nM
18 | COc1nc(NCCCN(C)C)nc(OC)c1NC(=O)c1ccc(Cc2c(C)cc3c(c2C)C(C)(C)CO3)o1 [Example H3, N-(2-{[3-(Dimethylamino)propyl]amino}-4,6-dimethoxypyrimidin-5-yl)-5-[(3,3,4,6-tetramethyl-2,3-dihydro-1-benzofuran-5-yl)methyl]-2-furamide] | 46 nM
19 | COc1nc(NCCc2ccncc2)nc(OC)c1NC(=O)c1ccc(Cc2cc3c(cc2C)C(C)(C)OC3(C)C)o1 [Example D66, N-{4,6-Dimethoxy-2-[(2-pyridin-4-ylethyl)amino]pyrimidin-5-yl}-5-[(1,1,3,3,6-pentamethyl-1,3-dihydro-2-benzofuran-5-yl)methyl]-2-furamide] | 5.1 nM
